This passage reports mass density results from the NIST ThermoML archive (doi:10.1021/acs.jced.8b00936).

A word on the mass density: it is mass per unit of volume.

Numbers after ± are expanded uncertainties.

The conditions of this data set: 100 kPa, Liquid, Pycnometric method.

In the case of `CCCCOCCOCCCC` [5,8-dioxadodecane], the mass density by setting is: (273.15 K) 859.9 ± 4.9 kg/m3; (283.15 K) 849.3 ± 4.8 kg/m3.
